Laboratory results from patent publication US20260250318A1, “COMPOSITIONS AND METHODS FOR CROSSING THE BLOOD BRAIN BARRIER” (VOYAGER THERAPEUTICS, INC., priority 2022, published 2026).

What was measured:
brain = assay: Matured TTM-001 and TTM-002 variants, NGS enrichment in mouse brain; assay type: in vivo, mice; details: relative to AAV9 control
[1] = tested on: brains, heart, liver, muscle, and DRG of the NHPs; assay: Maturation of TTM-001 and TTM-002 capsids, NGS enrichment in NHP tissues; assay type: in vivo; details: relative to AAV9 control
Outline: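 Variants carry mutations within and flanking the loop IV peptide insert: positions 450–466 were triplet-randomized, while positions 449–466 received low-frequency point mutations. The combined pool went into two NHPs, and each peptide was scored by NGS enrichment ratio against AAV9.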

[2] = NGS fold-enrichment, brain of mice
[3] = NGS fold-enrichment, DRG of NHPs
[4] = NGS fold-enrichment, RNA, brain of NHPs
[5] = NGS fold-enrichment, heart of NHPs
[6] = NGS fold-enrichment, liver DNA of NHPs
[7] = NGS fold-enrichment, liver RNA of NHPs
[8] = NGS fold-enrichment, muscle of NHPs
[9] = NGS fold-enrichment, mouse brain
[10] = NGS fold-enrichment of RNA, NHP brain
[11] = NGS fold-enrichment, NHP liver DNA
[12] = NGS fold-enrichment, NHP liver RNA
[13] = NGS fold-enrichment, NHP muscle
[14] = NGS fold-enrichment of matured AAV capsid variants, NHP brain, RNA

Sequence	Fold Enrichment relative to AAV9, Brain (Mouse) (brain; [2]) [fold]	Fold Enrichment relative to AAV9, DRG (NHP) [1, 3] [fold]	Fold Enrichment relative to AAV9, Brain (NHP) [1, 4] [fold]	Fold Enrichment relative to AAV9, Heart (NHP) [1, 5] [fold]	Fold Enrichment relative to AAV9, Liver DNA (NHP) [1, 6] [fold]	Fold Enrichment relative to AAV9, Liver RNA (NHP) [1, 7] [fold]	Fold Enrichment relative to AAV9, Muscle (NHP) [1, 8] [fold]	Fold Enrichment relative to AAV9, Brain (Mouse) (brain; [9]) [fold]	Fold Enrichment relative to AAV9, Brain (NHP) [1, 10] [fold]	Fold Enrichment relative to AAV9, DRG (NHP) ([1]; NGS fold-enrichment, NHP DRG) [fold]	Fold Enrichment relative to AAV9, Heart (NHP) ([1]; NGS fold-enrichment, NHP heart) [fold]	Fold Enrichment relative to AAV9, Liver DNA (NHP) [1, 11] [fold]	Fold Enrichment relative to AAV9, Liver RNA (NHP) [1, 12] [fold]	Fold Enrichment relative to AAV9, Muscle (NHP) [1, 13] [fold]	also measured
KTVNGSGSPHSKAQNHLT	70.786	0.133	59.239	0.034	0.156	0.000	0.000								
KTDRMSGSPHSKAQNQQT	104.890	0.000	65.143	0.000	0.103	0.332	0.000								
KTVNGHDSPHKSRQSQQT								8.136	76.458	0.000	0.063	0.021	0.000	0.000	
KTINGSGSPHSKAQHGLT															Fold Enrichment relative to AAV9, Brain (Mouse) (brain; mouse brain): 117.191 fold; Fold Enrichment relative to AAV9, Brain (NHP) [1, 14]: 55.999 fold; Fold Enrichment relative to AAV9, DRG (NHP) ([1]; NHP DRG): 0.000 fold; Fold Enrichment relative to AAV9, Heart (NHP) ([1]; NHP heart): 0.000 fold; Fold Enrichment relative to AAV9, Liver DNA (NHP) ([1]; NHP liver, DNA): 0.244 fold; Fold Enrichment relative to AAV9, Liver RNA (NHP) ([1]; NHP liver, RNA): 1.913 fold; Fold Enrichment relative to AAV9, Muscle (NHP) ([1]; NHP muscle): 0.101 fold
KTVNASGSPHSKAQNQLT															Fold Enrichment relative to AAV9, Brain (Mouse) (brain; mouse brain): 99.559 fold; Fold Enrichment relative to AAV9, Brain (NHP) [1, 14]: 51.249 fold; Fold Enrichment relative to AAV9, DRG (NHP) ([1]; NHP DRG): 0.000 fold; Fold Enrichment relative to AAV9, Heart (NHP) ([1]; NHP heart): 0.000 fold; Fold Enrichment relative to AAV9, Liver DNA (NHP) ([1]; NHP liver, DNA): 0.268 fold; Fold Enrichment relative to AAV9, Liver RNA (NHP) ([1]; NHP liver, RNA): 0.000 fold; Fold Enrichment relative to AAV9, Muscle (NHP) ([1]; NHP muscle): 0.000 fold
KTVNGSGSPHSKSQNQLT	80.716	0.000	101.327	0.035	0.025	0.000	0.000	80.716	101.327	0.000	0.035	0.025	0.000	0.000	
KTINGHDSPHKIGLDQQT								5.469	165.627	0.000	0.000	0.000	1.942	0.000	
KTVNGSGSPHSKAQYQHT	54.158	0.000	72.847	0.000	0.130	0.000	0.000								
KTVHGNGSPHSKAQNQQT	97.003	0.000	90.073	0.000	0.304	0.000	0.000	97.003	90.073	0.000	0.000	0.304	0.000	0.000	
KAINGHDSPHKSGQIRQT								8.862	108.510	0.000	23.908	0.261	0.132	0.000	
KTISGGGSPHSKAQNQQN	87.761	0.000	59.801	0.000	0.039	0.722	0.000								
KTCNGHDSPHKSGRNQQT								12.496	94.616	0.000	0.025	0.128	0.000	0.000	
KATNGSGSPHSKAQNHQT	66.207	0.000	82.627	0.176	0.057	0.155	0.000	66.207	82.627	0.000	0.176	0.057	0.155	0.000	
KTVNGGGSPHSKAQNHQT															Fold Enrichment relative to AAV9, Brain (Mouse) (brain; mouse brain): 67.188 fold; Fold Enrichment relative to AAV9, Brain (NHP) [1, 14]: 54.246 fold; Fold Enrichment relative to AAV9, DRG (NHP) ([1]; NHP DRG): 0.375 fold; Fold Enrichment relative to AAV9, Heart (NHP) ([1]; NHP heart): 0.024 fold; Fold Enrichment relative to AAV9, Liver DNA (NHP) ([1]; NHP liver, DNA): 0.146 fold; Fold Enrichment relative to AAV9, Liver RNA (NHP) ([1]; NHP liver, RNA): 0.000 fold; Fold Enrichment relative to AAV9, Muscle (NHP) ([1]; NHP muscle): 0.000 fold
KTINGHDSPHKSAQNYQT								19.443	130.375	0.000	0.124	0.123	0.097	0.000	
KAVNVSGSPHSKAQNQQT															Fold Enrichment relative to AAV9, Brain (Mouse) (brain; mouse brain): 57.835 fold; Fold Enrichment relative to AAV9, Brain (NHP) [1, 14]: 54.586 fold; Fold Enrichment relative to AAV9, DRG (NHP) ([1]; NHP DRG): 0.000 fold; Fold Enrichment relative to AAV9, Heart (NHP) ([1]; NHP heart): 0.000 fold; Fold Enrichment relative to AAV9, Liver DNA (NHP) ([1]; NHP liver, DNA): 0.023 fold; Fold Enrichment relative to AAV9, Liver RNA (NHP) ([1]; NHP liver, RNA): 0.000 fold; Fold Enrichment relative to AAV9, Muscle (NHP) ([1]; NHP muscle): 0.000 fold
